Assay results reported in US11571413B2, “Nicotinamide riboside treatments of domesticated meat animals” (Kansas State University Research Foundation, priority 2017, dated 2023).

Tests used:
finishing barrows = test: Finishing pig growth performance (Example IV); format: in vivo
Method: Seven days prior to the beginning of the experiment, 10 finishing barrows (initial BW 111.9±1.6 kg) were assigned to individual pens located at the East Finisher facility of the Kansas State University Swine Teaching and Research Center (Manhattan, Kans.). Each pen was 7.4 m^2 with a slatted floor, contained a nipple waterer and an individual dry feeder that allowed ad libitum access to food and water. Barrows were randomly assigned to 1 of 2 NR treatments, 0 or 30 mg/kg daily of NR mixed in Karo® syrup and administered by oral gavage. Barrows were administered their assigned treatment for 10 days, after which they were harvested under USDA inspection. Twenty-four hours after harvest, carcass measurements were taken by trained personnel, carcasses were fabricated into the 5 major wholesale cuts, and whole-boneless loins were vacuum packaged and aged for 10 days. Loin were cut into 3 chops with chop 1 being used for day-0 metmyoglobin reducing ability (MRA) analysis, chop 2 being used for day-4 MRA and oxygen consumption rate (OCR) analyses, and chop 3 for 8-day objective/subjective color evaluation and MRA and OCR analyses.

growing pigs = test: Longissimus lumborum muscle fiber distribution and succinate dehydrogenase staining (Example III); format: in vivo, pig; conditions: 30 mg/kg BW, 7 days; numerical
Method: Nine growing pigs were blocked by bodyweight (BW) and placed in metabolism crates. After a 3-day acclimation period, pigs within each BW block were randomly assigned to a treatment (n=3 pigs/treatment). Treatments comprised pigs supplemented 0, 15, or 30 mg/kg BW NR for 7 days. Pigs were allowed ad libitum access to a standard growing diet and water. Treatments were administered daily at 8 a.m. by mixing NR in 20 mL of Karo® dark syrup and orally drenching the pigs. On day 0 and 3 of the trial, muscle biopsies of the LL were taken for NAD+ analysis using standard procedures. At day 7, pigs were transported to the Kansas State University Meats Laboratory and euthanized by a captive penetrating bolt to the brain, followed by exsanguination. Following harvest procedures, 3 g of the LL were collected for NAD+ analysis. Twenty-four hours after harvest, the whole LL not sampled at harvest was removed from the carcass and aged 10 days. After aging, the LL was cut into 6 chops for retail color stability analysis, including 6-day surface oxy- and metmyoglobin percentage, 6-day objective and subjective color panel evaluation, and day 4 and 6 metmyoglobin reducing ability (MRA).

[1] = tested on: Fertilized broiler eggs (Cobb 500); test: Pectoralis major muscle fiber CSA and density by immunohistochemistry (Example VI); format: in vivo, chicken; conditions: hatched chicks
Method: The methods of Noel et al. (2016) were followed for immunohistochemistry with modifications. The PM was removed from the tongue depressor, embedded in tissue embedding media (Fisher Scientific), cooled with isopentane chilled liquid nitrogen, and stored at −80° C. until cryosectioning. Ten micrometer-thick cryosections were cut using a Microm 550 cryostat (Thermo Fisher Scientific, Kalamazoo, Mich.) and six cryosection were collected on positively charged slides (Diamond White Glass; Globe Scientific Inc., Paramus, N.J.). Cryosections were incubated in a blocking solution containing 5% horse serum and 0.2% TritonX-100 in Phosphate Buffered Saline (PBS) for 30 min. Slides were incubated for 1 h at room temperature in a primary antibody solution consisting of blocking solution and 1:500 rabbit, α-dystrophin (Thermo Fisher Scientific). Cryosections were washed 3 times for 5 min each in PBS and incubated for an additional 30 min with blocking solution containing 1:1,000 Alexa-Flour 594 goat-anti-rabbit heavy and light chains (Life Technologies, Carlsbad, Calif.). Cryosections were washed again as stated above, 5 μl of 9:1 glycerol in PBS was placed on each section, and slides were coverslipped for imaging. Cryosections were visualized at 200× magnification using a Nikon Elipse TI-U inverted microscope (Nikon Instruments Inc., Melville, N.Y.), a Nikon DS-QiMC digital camera (Nikon Instruments Inc.) was used to photograph cryosections, and an average of 1,000 fibers were analyzed using NIS-Elements imaging software (Basic Research, 3.3; Nikon Instruments Inc.) to determine fiber cross-section area (CSA).

[2] = d 0 to 17, NR 30 mg/kg daily d 7 to 17

For `NC(=O)c1ccc[n+]([C@@H]2O[C@H](CO)[C@@H](O)[C@H]2O)c1` [Nicotinamide riboside, nicotinamide riboside], the “Increase of average daily gain (numerical)” value (finishing barrows; 30 mg/kg daily oral gavage over 10 days) was 8%, the Body weight (finishing barrows; d 0 (NR 30 mg/kg given d 7 to 17; before treatment)) was 112.0 kg and the Average daily gain (finishing barrows; d 0 to 7 (before NR treatment)) was 0.7 kg. The “Average daily feed intake” value (finishing barrows; [2]) was 3.8 kg, the Average daily gain (finishing barrows; [2]) was 1.1 kg and the “Feed to gain ratio” value (finishing barrows; [2]) was 3.42. It also gave a Body weight (finishing barrows; d 7 (start of NR 30 mg/kg, d 7 to 17)) of 117.0 kg, an Average daily gain (finishing barrows; d 7 to 17, NR 30 mg/kg daily) of 1.43 kg and a Body weight (finishing barrows; d 17, NR 30 mg/kg daily d 7 to 17) of 131.3 kg. The “Muscle fiber distribution vs 0 mg/kg LL” value (growing pigs) was “less type 2B (glycolytic) fibers and more type 1 and 2A (oxidative) fibers”, the “Succinate dehydrogenase staining in type 2B fibers vs other two treatments” value (growing pigs) was “more intense staining” and the “PM fiber CSA” value ([1]; 250 mM NR in ovo at d 10) was “did not affect”. The “Muscle fiber density vs saline in the albumen” value ([1]; 250 mM NR into albumen) was “not differ”, the “Increase of PM fiber density” value ([1]; 250 mM NR into the yolk sac) was 45% and the “Muscle fiber density vs saline in the yolk” value ([1]; 250 mM NR into yolk) was “more”.
